Measurements taken from ChEMBL document CHEMBL2440118, “Triazole-dithiocarbamate based selective lysine specific demethylase 1 (LSD1) inactivators inhibit gastric cancer cell growth, invasion, and migration” (J Med Chem, 2013).
Calls of active or inactive are those of the source. The rule behind the calls is not given here.

How the values were obtained:
[1] = target: Lysine-specific histone demethylase 1A (Homo sapiens) (UniProt O60341); details: 312.5 uM
[2] = target: Lysine-specific histone demethylase 1A (Homo sapiens) (UniProt O60341)
[3] = target: Lysine-specific histone demethylase 1A (Homo sapiens) (UniProt O60341); experiment: Inhibition of LSD1-snail interaction in human MGC803 cells at 0.25 uM after 48 hrs by immunoprecipitation assay; type: cell-based; details: MGC-803
[4] = target: Lysine-specific histone demethylase 1A (Homo sapiens) (UniProt O60341); experiment: Inhibition of LSD1 in human MGC803 cells assessed as elevation of E-cadherin protein expression at 0.02 to 1 uM after 48 hrs by Western blotting analysis relative to control; type: cell-based; details: MGC-803
[5] = target: Lysine-specific histone demethylase 1A (Homo sapiens) (UniProt O60341); details: 0.5 to […]
[6] = target: T1, Amine oxidase [flavin-containing] B (Homo sapiens, UniProt P27338)
T1 sequence (P27338 whole entry): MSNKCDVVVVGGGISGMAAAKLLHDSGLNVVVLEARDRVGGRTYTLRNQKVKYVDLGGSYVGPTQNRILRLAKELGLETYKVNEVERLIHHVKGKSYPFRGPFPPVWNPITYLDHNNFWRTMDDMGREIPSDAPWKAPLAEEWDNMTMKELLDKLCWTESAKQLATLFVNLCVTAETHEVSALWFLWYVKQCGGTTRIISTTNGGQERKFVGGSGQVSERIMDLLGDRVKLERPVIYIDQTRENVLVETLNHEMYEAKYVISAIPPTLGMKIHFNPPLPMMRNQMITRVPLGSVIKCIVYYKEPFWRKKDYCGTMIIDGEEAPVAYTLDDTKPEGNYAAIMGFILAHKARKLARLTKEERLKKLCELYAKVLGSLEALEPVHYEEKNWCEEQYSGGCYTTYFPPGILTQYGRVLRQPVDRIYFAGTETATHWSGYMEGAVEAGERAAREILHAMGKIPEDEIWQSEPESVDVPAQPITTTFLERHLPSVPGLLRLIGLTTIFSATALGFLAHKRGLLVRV

[7] = target: Lysine-specific histone demethylase 1A (Homo sapiens) (UniProt O60341); details: 0.5 to […]; remark: listed apart in the source
[8] = target: Lysine-specific histone demethylase 1A (Homo sapiens) (UniProt O60341); details: 0.5 to […]; remark: listed apart in the source
[9] = target: T2, Amine oxidase [flavin-containing] A (Homo sapiens, UniProt P21397)
T2 sequence (P21397 whole entry): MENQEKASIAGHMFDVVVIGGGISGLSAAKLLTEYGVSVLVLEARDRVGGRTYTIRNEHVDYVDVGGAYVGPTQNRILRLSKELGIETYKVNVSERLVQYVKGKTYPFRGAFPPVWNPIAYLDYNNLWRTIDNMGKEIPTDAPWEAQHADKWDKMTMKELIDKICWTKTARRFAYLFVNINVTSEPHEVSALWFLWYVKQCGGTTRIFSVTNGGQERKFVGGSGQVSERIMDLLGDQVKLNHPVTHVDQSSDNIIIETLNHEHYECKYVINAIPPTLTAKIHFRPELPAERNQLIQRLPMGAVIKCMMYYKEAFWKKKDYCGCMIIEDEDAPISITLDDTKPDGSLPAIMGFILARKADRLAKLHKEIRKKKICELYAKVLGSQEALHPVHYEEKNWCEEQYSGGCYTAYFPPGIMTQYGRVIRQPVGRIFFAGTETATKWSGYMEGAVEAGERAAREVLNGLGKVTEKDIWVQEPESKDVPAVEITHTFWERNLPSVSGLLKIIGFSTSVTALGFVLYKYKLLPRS

[10] = target: Lysine-specific histone demethylase 1A (Homo sapiens) (UniProt O60341); remark: listed apart in the source

| Structure (SMILES) | inhibition [1] | inhibition [2] | inhibition [3] | inhibition [4] | inhibition [5] | IC50 [6] | inhibition [7] | inhibition [8] | IC50 [9] | inhibition [10] |
| --- | --- | --- | --- | --- | --- | --- | --- | --- | --- | --- |
| Cc1ccc(Cn2cc(CSC(=S)N3CCN(C(=O)OC(C)(C)C)CC3)nn2)cc1 | Active | Active | Active | Active | Active | > 1250 µM | Active | Active | > 1.25 mM | Active |
| CC(C)(C)OC(=O)N1CCN(C(=S)SCc2cn(Cc3ccccc3F)nn2)CC1 | – | – | – | – | – | 791 µM | – | – | > 1.25 mM | – |
